# Test results: EP1174424A1, “3-[…] D DERIVATIVES” (CHUGAI SEIYAKU KABUSHIKI KAISHA, priority 1999, dated 2000)
# Target: T1, Bovine thymus 1α,25-dihydroxy vitamin D3 receptor (Bos taurus, UniProt Q28037)
# T1 construct: Bovine thymus 1α,25-dihydroxy vitamin D3 receptor was purchased from YAMASA BIOCHEMICAL; purchased YAMASA BIOCHEMICAL (Choshi, Chiba, Japan); host or cells: bovine thymus (tissue preparation)
# T1 sequence (Q28037 1-426): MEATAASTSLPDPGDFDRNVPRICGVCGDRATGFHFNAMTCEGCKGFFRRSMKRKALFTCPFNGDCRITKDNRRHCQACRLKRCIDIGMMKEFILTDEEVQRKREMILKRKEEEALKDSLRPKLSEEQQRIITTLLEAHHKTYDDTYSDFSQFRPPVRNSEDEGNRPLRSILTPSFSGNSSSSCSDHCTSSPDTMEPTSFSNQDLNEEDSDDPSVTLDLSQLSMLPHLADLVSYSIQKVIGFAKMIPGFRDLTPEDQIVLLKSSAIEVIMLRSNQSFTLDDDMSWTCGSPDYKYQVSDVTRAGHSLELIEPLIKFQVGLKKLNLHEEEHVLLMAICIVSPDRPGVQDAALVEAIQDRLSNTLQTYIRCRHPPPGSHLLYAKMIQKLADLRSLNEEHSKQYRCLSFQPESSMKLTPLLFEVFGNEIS
# Experiment: Assay for binding to vitamin D receptor (VDR); displacement of [3H]-1α,25-dihydroxy vitamin D3
# Settings: relative value, with that of 1α,25-dihydroxy vitamin D3 taken as 100; [3H]-1α,25-dihydroxy vitamin D3 at 0.1 nM, overnight at 4°C
# Procedure: Test example 1: Assay for binding to vitamin D receptor (VDR)
# Bovine thymus 1α,25-dihydroxy vitamin D3 receptor was purchased from YAMASA BIOCHEMICAL (Choshi, Chiba, Japan) and dissolved in 0.05 M phosphate buffer (pH 7.4) containing 0.3M KCl and 5mM dithiothreitol just before use. Aliquots (500 µl, 0.23 mg protein) of the receptor solution and ethanol solutions (50 µl) of 1α,25-dihydroxy vitamin D3 or derivatives (compounds of the present invention) at various concentrations were combined, and pre-incubated at 25°C for 60 minutes. To the resultant receptor mixtures, [^3H]-1α,25-dihydroxy vitamin D3 was added at 0.1 nM, followed by standing overnight at 4°C. The mixtures were treated with dextran coated charcoal for 30 minutes at 4°C to separate the bound arid free forms of [^3H]-1α,25-dihydroxy vitamin D3, and centrifuged at 3000 rpm for ten minutes. Each of the resultant supernatants (500 µl) was mixed with ACS-II (9.5 ml) (AMERSHAM, England) for radioactivity measurement.
# The binding property of the compounds of the present invention was expressed in relative values, with that of 1α,25-dihydroxy vitamin D3 taken as 100. (Table 1)
row,Compound,Binding property
1,"C=C1/C(=C\C=C2/CCC[C@]3(C)[C@@H]([C@H](C)CCCC(C)(C)O)CC[C@@H]23)C[C@](C)(O)C[C@@H]1O [3-Me-(1α,3α)-dihydroxy vitamin D3]",< 0.1
2,"C=C1/C(=C\C=C2/CCC[C@]3(C)[C@@H]([C@H](C)CCCC(C)(C)O)CC[C@@H]23)C[C@@](C)(O)C[C@@H]1O [3-Me-(1α,3β)-dihydroxy vitamin D3]",18
3,"C=C1/C(=C\C=C2/CCC[C@]3(C)[C@@H]([C@H](C)CCCC(C)(C)O)CC[C@@H]23)C[C@](C)(O)C[C@H]1O [3-Me-(1β,3α)-dihydroxy vitamin D3, 3-methyl-1β,3α-dihydroxy vitamin D3]",< 0.1
4,"C=C1/C(=C\C=C2/CCC[C@]3(C)[C@@H]([C@H](C)CCCC(C)(C)O)CC[C@@H]23)C[C@@](C)(O)C[C@H]1O [3-Me-(1β,3β)-dihydroxy vitamin D3, 3-methyl-1β,3β-dihydroxy vitamin D3]",< 0.1
